According to ChEMBL document CHEMBL1201862, “PubChem BioAssay data set” (2004):
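Five concentrations, 48 hours, 96-well plates. GI50 is the concentration that inhibits growth by half.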 Active and inactive are the calls of the source. Cut-off read from the data, not from the text of the source: active = GI50 up to about 1.1 µM and inactive = higher.

Experiments:
Test in all cases: DTP human tumour cell line panel, 48 h
CCRF-CEM = system: CCRF-CEM
HCT-15 = system: HCT-15
IGROV-1 = system: IGROV-1
K562 = system: K562
KM12 = system: KM12
NCI-H23 = system: NCI-H23
NCI-H460 = system: NCI-H460
SF-295 = system: SF-295
SK-MEL-28 = system: SK-MEL-28
SK-MEL-2 = system: SK-MEL-2
SK-MEL-5 = system: SK-MEL-5
SR = system: SR
U-251 = system: U-251
UACC-257 = system: UACC-257
UACC-62 = system: UACC-62
UO-31 = system: UO-31
MCF7 = system: MCF7
T47D = system: T47D
MDA-MB-231 = system: MDA-MB-231
NCI/ADR-RES = system: NCI/ADR-RES

| SMILES | GI50 (CCRF-CEM) | GI50 (HCT-15) [µM] | GI50 (IGROV-1) | GI50 (K562) | GI50 (KM12) | GI50 (NCI-H23) | GI50 (NCI-H460) | GI50 (SF-295) | GI50 (SK-MEL-28) | GI50 (SK-MEL-2) | GI50 (SK-MEL-5) | GI50 (SR) | GI50 (U-251) | GI50 (UACC-257) | GI50 (UACC-62) | GI50 (UO-31) | GI50 (MCF7) | GI50 (T47D) | GI50 (MDA-MB-231) | GI50 (NCI/ADR-RES) |
| --- | --- | --- | --- | --- | --- | --- | --- | --- | --- | --- | --- | --- | --- | --- | --- | --- | --- | --- | --- | --- |
| CCCCc1c2c(nc3c1CCCC3O)/C(=C/c1ccccc1)CCC2 (configuration not stated) | 15.9 µM (inactive) | 16 | 45.8 µM (inactive) | 11.4 µM (inactive) | 18.7 µM (inactive) | 27.3 µM (inactive) | 17.1 µM (inactive) | 42.3 µM (inactive) | 33.5 µM (inactive) | 24.8 µM (inactive) | 21.7 µM (inactive) | 14 µM (inactive) | 28 µM (inactive) | 30 µM (inactive) | 33.8 µM (inactive) | 42.9 µM (inactive) |  |  |  |  |
| COP(=O)(OC)C(=O)N1N(c2ccc([N+](=O)[O-])cc2)C(=O)C(C)NC1(NNc1ccc([N+](=O)[O-])cc1)P(=O)(OC)OC (configuration not stated) | > 100 µM (inactive) | > 100 | > 100 µM (inactive) | > 100 µM (inactive) | > 100 µM (inactive) | > 100 µM (inactive) | > 100 µM (inactive) |  | > 100 µM (inactive) | > 100 µM (inactive) | > 100 µM (inactive) | > 100 µM (inactive) | > 100 µM (inactive) | > 100 µM (inactive) | > 100 µM (inactive) | > 100 µM (inactive) |  |  |  |  |
| CC1(C)C2=CCCC(=O)[C@@]2(C)CC[C@@H]1O | > 100 µM (inactive) |  | > 100 µM (inactive) | > 100 µM (inactive) | > 100 µM (inactive) | > 100 µM (inactive) | > 100 µM (inactive) | > 100 µM (inactive) | > 100 µM (inactive) | 5.97 µM (inactive) | > 100 µM (inactive) | > 100 µM (inactive) | > 100 µM (inactive) | > 100 µM (inactive) | > 100 µM (inactive) | > 100 µM (inactive) |  |  |  |  |
| CCOC(=O)C(=Cc1ccc(Oc2ccccc2)cc1)C(=O)OCC | 2.03 µM (inactive) | 2.44 | 6.81 µM (inactive) | 1.87 µM (inactive) | 5.98 µM (inactive) | 2.58 µM (inactive) | 18.2 µM (inactive) | 5.13 µM (inactive) | 3.56 µM (inactive) | 1.85 µM (inactive) | 1.98 µM (inactive) | 2.52 µM (inactive) | 3.35 µM (inactive) | 2.42 µM (inactive) | 1.63 µM (inactive) | 4.35 µM (inactive) | 4.09 µM (inactive) | 5.85 µM (inactive) |  |  |
| O=c1oc(C(C(F)(F)F)C(F)(F)F)nc2ccccc12 | > 100 µM (inactive) | > 100 | > 100 µM (inactive) | > 100 µM (inactive) |  | > 100 µM (inactive) | > 100 µM (inactive) | > 100 µM (inactive) | > 100 µM (inactive) | > 100 µM (inactive) | > 100 µM (inactive) | > 100 µM (inactive) | > 100 µM (inactive) | > 100 µM (inactive) |  | > 100 µM (inactive) | > 100 µM (inactive) |  | > 100 µM (inactive) | > 100 µM (inactive) |
| O=C1COc2cccnc2N1CCCCO | > 100 µM (inactive) | > 100 | > 100 µM (inactive) |  | > 100 µM (inactive) |  | > 100 µM (inactive) | > 100 µM (inactive) | > 100 µM (inactive) | > 100 µM (inactive) | > 100 µM (inactive) | > 100 µM (inactive) | > 100 µM (inactive) | > 100 µM (inactive) | > 100 µM (inactive) | > 100 µM (inactive) | > 100 µM (inactive) | 38.1 µM (inactive) | > 100 µM (inactive) |  |
| C=C1CC[C@@H](CCC2CCC3(OC2)O[C@]2(O)CC[C@@]3(C)OC2(C)C)C(C)(C)[C@H]1C/C=C1\CCOC1=O (some centres not stated) | 10.4 µM (inactive) | 11.3 | 18.5 µM (inactive) | 0.0798 µM (active) | 16.2 µM (inactive) | 0.444 µM (active) | 16.4 µM (inactive) |  | 26.1 µM (inactive) | 17.5 µM (inactive) | 0.0244 µM (active) | 2.67 µM (inactive) | 15.1 µM (inactive) | 0.507 µM (active) | 27 µM (inactive) | 30.3 µM (inactive) | 1.76 µM (inactive) |  | 23.6 µM (inactive) | 1.78 µM (inactive) |
| COC(=O)[C@]1(C)C(OC)=CC(=O)C2C1[C@H]1CCC[C@@H]21 (some centres not stated) | > 100 µM (inactive) | > 100 | > 100 µM (inactive) | > 100 µM (inactive) | > 100 µM (inactive) | > 100 µM (inactive) | > 100 µM (inactive) | > 100 µM (inactive) | > 100 µM (inactive) | > 100 µM (inactive) | > 100 µM (inactive) | > 100 µM (inactive) | > 100 µM (inactive) | > 100 µM (inactive) | > 100 µM (inactive) | > 100 µM (inactive) |  |  |  |  |
